Positions of bridges follow the written chain, without caps; N, C: chain ends. Non-standard residues stand in square brackets, D forms with d. No end group written: not given here.
Key:
KgpF v 3.1 = assay: Prenylation of artificial cyclic peptides with 10 μM KgpF v 3.1 (Example 11; Table 7); format: biochemical, Microcystis aeruginosa; set-up: key: 5: strong intensity; 4: medium intensity; 3: weak intensity; 2: very weak intensity; 1: no peak; N/A: not observed; conditions: KgpF v 3.1 10 μM
Description: Reaction of the artificial cyclic peptide shown in Table 7 was made under conditions similar to (Conditions 11) and (Conditions 12) except that v8s/v11.1 was used as FIT system, KgpF v 3.1 was used as a prenylation modification enzyme, and the concentration of the KgpF v 3.1 was set at 10 μM. Here, KgpF v 3.1 is an enzyme having a higher purification degree and more improved specific activity than KgpF used under (Conditions 12).

KgpF [1] = assay: Prenylation of translated thioether-closed artificial cyclic peptides with KgpF, MALDI-TOF-MS analysis (Examples 1-9; 37° C., 18 hours); format: biochemical, Microcystis aeruginosa; set-up: key to DMAPP adduct 0 / DMAPP adduct 1: 0: N/A; 1: Nothing; 2: Very weak intensity; 3: Medium intensity; 4: Strong intensity; conditions: 2 mM DMAPP; for DMAPP adduct 1: MALDI-TOF-MS peak intensity of singly prenylated peptide; for DMAPP adduct 1 / DMAPP adduct 0: 160 μM KgpF; for DMAPP adduct 0: MALDI-TOF-MS peak intensity of unmodified peptide; for prenylation modification with KgpF (MALDI-TOF-MS): Example 3: 160 or 580 μM KgpF
Sequence of KgpF (as listed by the source): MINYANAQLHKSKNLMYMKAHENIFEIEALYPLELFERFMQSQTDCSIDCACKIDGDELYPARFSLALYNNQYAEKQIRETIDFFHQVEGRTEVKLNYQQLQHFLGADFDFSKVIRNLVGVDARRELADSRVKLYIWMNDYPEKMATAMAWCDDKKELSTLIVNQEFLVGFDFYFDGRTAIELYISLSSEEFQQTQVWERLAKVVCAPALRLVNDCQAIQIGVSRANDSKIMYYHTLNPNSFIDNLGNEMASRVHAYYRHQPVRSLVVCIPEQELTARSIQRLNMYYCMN
Description: With regards to each of KgpF and OltF, heterogeneous co-expression of a gene synthesized after optimizing the codon of a gene derived from a producing strain was performed in Escherichia coli, followed by purification to obtain a prenylation enzyme.
The analysis was performed using UltrafleXtreme (Bruker Daltonics) or Autoflex II (Bruker Daltonics) and peptide calibration standard II (Bruker Daltonics).
In short, six kinds in total of peptides were obtained by translation and synthesis under (Conditions 1) of the artificial translation system developed by the present inventors. The peptides thus obtained were then reacted with 14.7 μM KgpF at 37° C. for 18 hours in the system shown in (Conditions 2). “DMAPP” used in (Conditions 2) is dimethylallyl pyrophosphoric acid.
(Conditions 1) • FIT system: v7s/v8.0.3 • 19aa-Met: 0.5 mM • ClAc-D or L-Trp-tRNA^fMetCUA: 90 μM • Reaction: 37° C., 60 min. • Scale: […] scale
(Conditions 2) • Translated mixture amount: 2.5 μL (mixture obtained under (Conditions 1)) • KgpF: 14.7 μM • DMAPP: 2 mM • Total amount: 15.7 μL • Reaction: 37° C., 18 hours
The YG280 sequences having the steric configuration of the N terminal Trp serving as an initiation residue of D-form and those of L-form were synthesized, so that two kinds of peptides were prepared in total. These two kinds of artificial cyclic peptides were obtained by translation and synthesis in the artificial translation system (Conditions 3) developed by the present inventors. The peptides thus obtained were then reacted with 53, 160, and 580 μM KgpF in a system shown in (Conditions 4) at 37° C. for 18 hours.
(Conditions 3) • FIT system: v7s/v8.0.3 • 19aa-Met: 0.5 mM • ClAc-D or L-Trp-tRNA^fMetCUA: 120 μM • Reaction: 37° C., 3 hours • Scale: 2.5 μL scale
(Conditions 4) • Translated mixture amount: 2.5 μL (mixture obtained under (Conditions 3)) • KgpF: 53, 160, 580 μM • DMAPP: 2 mM • Reaction: 37° C., 18 hours
(§1) The above three kinds of artificial cyclic peptides were obtained by translation and synthesis in the artificial translation system (Conditions 5) developed by the present inventors. The peptides thus obtained were then reacted with KgpF in the system shown below in (Conditions 6) at 37° C. for 18 hours.
(Conditions 5) • FIT system: v7s/v8.0.3 • 19aa-Met: 0.5 mM • ClAc-D or L-Trp-tRNA^fMetCUA: 90 μM • Reaction: 37° C., 60 min. • Scale: 2.5 μL scale
(Conditions 6) • Translated mixture amount: 2.5 μL (mixture obtained under (Conditions 5)) • KgpF: 160 or 580 μM • DMAPP: 2 mM • Reaction: 37° C., 18 hours
as §1, with “six” for “three”, “7)” for “5)”, “with 160 μM” for “with”, “shown” for “shown below”, “8)” for “6)”
(Conditions 7) • FIT system: v7s/v9.1 • 19aa-Met: 0.5 mM • ClAc-D-Tyr-tRNA^fMetCUA: 90 μM • Reaction: 37° C., 60 min. • Scale: 2.5 μL scale
(Conditions 8) • Translated mixture amount: 2.5 μL (mixture obtained under (Conditions 7)) • KgpF: 160 μM • DMAPP: 2 mM • Reaction: 37° C., 18 hours
as §1, with “9)” for “5)”, “with 160 μM” for “with”, “shown” for “shown below”, “10)” for “6)”
(Conditions 9) • FIT system: v7s/v9.1 • 19aa-Met: 0.5 mM • ClAc-D-Tyr-tRNA^fMetCUA: 90 μM • Reaction: 37° C., 60 min. • Scale: 2.5 μL scale
(Conditions 10) • Translated mixture amount: 2.5 μL (mixture obtained under (Conditions 9)) • KgpF: 160 μM • DMAPP: 2 mM • Reaction: 37° C., 18 hours
The above artificial cyclic peptides were obtained by translation and synthesis in the artificial translation system (Conditions 11) developed by the present inventors. […]

OltF v 2.1 = assay: Modification test of thioether-closed artificial cyclic peptides with 9.13 μM OltF v 2.1 (Example 16; Tables 11 and 12); format: biochemical, Planktothrix; set-up: key: 5: strong intensity; 4: medium intensity; 3: weak intensity; 2: very weak intensity; 1: no peak; N/A: not observed; conditions: OltF v 2.1 9.13 μM, DMAPP 2 mM, 37° C., 18 hours
Sequence of OltF v 2.1 (as listed by the source): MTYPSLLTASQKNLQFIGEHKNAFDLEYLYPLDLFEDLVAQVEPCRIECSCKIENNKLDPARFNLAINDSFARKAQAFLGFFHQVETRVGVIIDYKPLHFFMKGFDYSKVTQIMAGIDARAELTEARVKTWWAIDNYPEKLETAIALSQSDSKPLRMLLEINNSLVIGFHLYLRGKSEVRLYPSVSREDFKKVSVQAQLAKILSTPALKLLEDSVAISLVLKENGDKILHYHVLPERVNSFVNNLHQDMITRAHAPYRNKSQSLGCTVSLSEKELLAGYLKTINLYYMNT
Description: The artificial cyclic peptides shown in Table 11 and Table 12 were obtained by translation and synthesis in the artificial translation system (Conditions 23) developed by the present inventors. The peptides thus obtained were then reacted with 9.13 μM OltF in the system shown in (Conditions 24) at 37° C. for 18 hours. It is to be noted that OltF v 2.1 is an enzyme prepared from OltF used in (Conditions 22) while changing a purification manner.
(Conditions 23) • FIT system: v8s/v11.1 • 19aa-Met: 0.5 mM • ClAc-D or L-Tyr-tRNA^fMetCUA: 90 μM • Reaction: 37° C., 60 min. • Scale: 2.5 μL scale
(Conditions 24) • Translated mixture amount: 2.5 μL (mixture obtained under (Conditions 23)) • OltF v 2.1: 9.13 μM • DMAPP: 2 mM • Reaction: 37° C., 18 hours

KgpF [2] = assay: Prenylation of artificial cyclic peptides containing VW or WG sequence with 60 μM KgpF (Examples 12 and 13; Tables 8, 9, 10); format: biochemical, Microcystis aeruginosa; set-up: key: 5: strong intensity; 4: medium intensity; 3: weak intensity; 2: very weak intensity; 1: no peak; N/A: not observed; conditions: KgpF 60 μM, DMAPP 2 mM, 37° C., 18 hours
Description: (§2) The artificial cyclic peptides shown in Table 8 and Table 9 were obtained by translation and synthesis in the artificial translation system (Conditions 15) developed by the present inventors. The peptides thus obtained were then reacted with 60 μM KgpF in the system shown in (Conditions 16) at 37° C. for 18 hours.
(Conditions 15) • FIT system: v8s/v11.1 • 19aa-Met: 0.5 mM • ClAc-D-Tyr-tRNA^fMetCUA: 90 μM • Reaction: 37° C., 60 min. • Scale: 2.5 μL scale
(Conditions 16) • Translated mixture amount: 2.5 μL (mixture obtained under (Conditions 15)) • KgpF: 60 μM • DMAPP: 2 mM • Reaction: 37° C., 18 hours
as §2, with “10” for “8 and Table 9”, “17)” for “15)”, “18)” for “16)”
(Conditions 17) • FIT system: v8s/v11.1 • 19aa-Met: 0.5 mM • ClAc-D-Tyr-tRNA^fMetCUA: 90 μM • Reaction: 37° C., 60 min. • Scale: 2.5 μL scale
(Conditions 18) • Translated mixture amount: 2.5 μL (mixture obtained under (Conditions 17)) • KgpF: 60 μM • DMAPP: 2 mM • Reaction: 37° C., 18 hours

[3] = Table 10, W at various positions
[4] = Table 9, VW sequence, various ring sizes
[5] = Table 8, VW sequence, various ring sizes

Substance: YG293-MaL4 ({CH2CO}-[dY]TFRDVWIFYGSLLSRC; thioether N-17 (inferred))
- Peak intensity, The number of prenyl groups added 0 (KgpF v 3.1): 1
- Peak intensity, The number of prenyl groups added 1 (KgpF v 3.1): 5

Substance: YG291-PaktiL2 ({CH2CO}-[dY]WILITWPLVRRKC; thioether N-14 (inferred))
- Peak intensity, The number of prenyl groups added 0 (KgpF v 3.1): 4
- Peak intensity, The number of prenyl groups added 1 (KgpF v 3.1): 4

Substance: YG304-YG280(FFWFF): artificial cyclic peptide, template YLNGDFFWFFPC (SEQ ID NO 246) ({CH2CO}-[dY]LNGDFFWFFPC; thioether N-12)
- DMAPP adduct 1 (KgpF [1]): 3
- DMAPP adduct 0 (KgpF [1]): 4

Substance: YG295-aML5 ({CH2CO}-[dY]ISWNEFNSPNWRFITC; thioether N-17 (inferred))
- Peak intensity, The number of prenyl groups added 0 (KgpF v 3.1): 1
- Peak intensity, The number of prenyl groups added 1 (KgpF v 3.1): 5
- Peak intensity, The number of prenyl groups added 2 (KgpF v 3.1): 1

Substance: YG296-aMD5 ({CH2CO}-[dY]WYYAWDQTYKAFPC; thioether N-15 (inferred))
- Peak intensity, The number of prenyl groups added 0 (KgpF v 3.1): 5
- Peak intensity, The number of prenyl groups added 1 (KgpF v 3.1): 3
- Peak intensity, The number of prenyl groups added 2 (KgpF v 3.1): 1

Substance: YG298: YG280 mutant having only the N-terminal Trp residue remained ({CH2CO}-[dW]LNGDNNYSTPC; thioether N-12)
- prenylation modification with KgpF (MALDI-TOF-MS) (KgpF [1]): no modified product was found

Substance: YG300-CM11(RFG > NWS): artificial cyclic peptide, template YCDVSGNWSYPC (SEQ ID NO 239)
- DMAPP adduct 1 (KgpF [1]): 4
- DMAPP adduct 0 (KgpF [1]): 2

Substance: YG290-CM11: peptide having no Trp residue in the peptide chain (random region) (Ac-[dW]CDVSGRFGYFPC; thioether (positions not given here); also: thioether ring to Cys2 or Cys13)
- prenylation modification with KgpF (MALDI-TOF-MS) (KgpF [1]): no modified product was found

Substance: YG289 ({CH2CO}-[dY]HDYRIWRYHTYPC; thioether N-14 (inferred))
- Peak intensity, The number of prenyl groups added 0 (OltF v 2.1; Table 11): 1
- Peak intensity, The number of prenyl groups added 1 (OltF v 2.1; Table 11): 5

Substance: YG411 ({CH2CO}-[dY]HDYRYHTYPVWGC; thioether N-14 (inferred))
- Peak intensity, The number of prenyl groups added 0 (KgpF [2]; [3]): 1
- Peak intensity, The number of prenyl groups added 1 (KgpF [2]; [3]): 5

Substance: DNT066 (Ac-[dY]NNRERGSDVVWVVPC; thioether (positions not given here); not fully specified (bridges))
- Peak intensity, The number of prenyl groups added 0 (OltF v 2.1; Table 12): 4
- Peak intensity, The number of prenyl groups added 1 (OltF v 2.1; Table 12): 5

Substance: YG292 ({CH2CO}-[dY]IRRPWVPIIYLGC; thioether N-14 (inferred))
- Peak intensity, The number of prenyl groups added 0 (OltF v 2.1; Table 11): 2
- Peak intensity, The number of prenyl groups added 1 (OltF v 2.1; Table 11): 5

Substance: YG395 ({CH2CO}-[dY]HDYRVWGYHTPC; thioether N-13 (inferred))
- Peak intensity, The number of prenyl groups added 0 (KgpF [2]; [4]): 1
- Peak intensity, The number of prenyl groups added 1 (KgpF [2]; [4]): 5

Substance: YG402 ({CH2CO}-[dY]WGHDYRVYHTYPC; thioether N-14 (inferred))
- Peak intensity, The number of prenyl groups added 0 (KgpF [2]; [3]): 5
- Peak intensity, The number of prenyl groups added 1 (KgpF [2]; [3]): 1

Substance: YG386 ({CH2CO}-[dY]VWCYPRG; thioether N-4)
- Peak intensity, The number of prenyl groups added 0 (KgpF [2]; [5]): 1
- Peak intensity, The number of prenyl groups added 1 (KgpF [2]; [5]): 5

Substance: DNT057 (Ac-[dY]RQFNRRTHYFWLPDC; thioether (positions not given here); not fully specified (bridges))
- Peak intensity, The number of prenyl groups added 0 (OltF v 2.1; Table 12): 1
- Peak intensity, The number of prenyl groups added 1 (OltF v 2.1; Table 12): 5

Substance: YG390 ({CH2CO}-[dY]RVWGYPC; thioether N-8)
- Peak intensity, The number of prenyl groups added 0 (KgpF [2]; [5]): 1
- Peak intensity, The number of prenyl groups added 1 (KgpF [2]; [5]): 5

Substance: YG299 (Ac-[dY]CDVSGRWGYFPC; thioether (positions not given here); not fully specified (bridges))
- Peak intensity, The number of prenyl groups added 0 (OltF v 2.1; Table 11): 3
- Peak intensity, The number of prenyl groups added 1 (OltF v 2.1; Table 11): 5

Substance: DNT034 (Ac-[dY]NNRERGSDYFWLPPC; thioether (positions not given here); not fully specified (bridges))
- Peak intensity, The number of prenyl groups added 0 (OltF v 2.1; Table 12): 1
- Peak intensity, The number of prenyl groups added 1 (OltF v 2.1; Table 12): 5

From patent publication US20220275534A1, “Peptide Library Production Method” (The University of Tokyo, priority 2018, published 2022)
